A short description of series [1]: Solid stability test of the crystalline form A. Type of series: physicochemical.
Series [2] can be described thus: Hygroscopicity study by dynamic vapor sorption (DVS). Type of series: physicochemical. Conditions: 25° C. and 80% RH. The procedure:
• Instrument model: SMS DVS advantage dynamic vapor sorption analyzer • Testing conditions: the sample (10-20 mg) was placed in DVS sample trays for testing. Detailed DVS Parameters: • Temperature: 25° C. • Balancing: dm/dt=0.01%/min (shortest: 10 min, longest: 180 min) • Drying: drying for 120 min at 0% RH • RH (%) testing step: 10% • RH (%) testing step range: 0%-90%-0%
The evaluation of hygroscopicity was classified as follows:
• 10-15 mg of the crystalline form A of the compound of formula (I) was placed on a DVS sample tray for testing.

With `Cc1sc2c(c1C)C(c1ccc(Cl)cc1)=N[C@@H](CC(=O)Nc1ccc3c(c1)COC3=O)c1nnc(C)n1-2`, in series [1] (0 day (initial)), the Appearance result was “White”, the Content amounted to 98.7%, the “Crystalline form (XRPD)” value is recorded as “form A” and the Total impurity is given as 0.17%. Besides, in series [1] (25° C./60% RH, sealed, 90 days), the Appearance result is “White”, the Content is recorded as 99.4%, the “Crystalline form (XRPD)” value is reported as “form A” and the Total impurity came out at 0.12%. For the same compound, in series [1] (40° C./75% RH, sealed, 90 days), the Appearance entry is recorded as “White”, the Content worked out at 99.2%, the “Crystalline form (XRPD)” value was “form A” and the Total impurity is reported as 0.19%. Moreover, in series [1] (accelerated and prolonged conditions, 90 days), the “Solid stability (conclusion)” value is on record as “good stability”. Moreover, in series [2], the Moisture absorption classification result was “slightly hygroscopic” and the “ΔW, increase in weight by moisture sorption” value is recorded as 1.789%.

The values above are taken from patent US12344620B2, “BRD4 inhibitor compound in solid form and preparation method therefor and use thereof” (CSPC ZHONGQI PHARMACEUTICAL TECHNOLOGY (SHIJIAZHUANG) CO., …, priority 2019, dated 2025).
